No end group written: not given here. Bounds are passed on as bounds.

The term MIC denotes the lowest concentration found to suppress growth. High values mean weaker potency, low ones greater potency.

Data set [1] relates to E. coli biofilm. Description: Antibiofilm assay (MBIC/MBEC), crystal violet. The class given is cell-based, Escherichia coli. The settings on record: LB, 595 nm, nine replicates from three independent experiments. On the procedure:
(§1) The minimal biofilm inhibitory concentration assay (MBIC) and minimal biofilm eradication concentration assay (MBEC) were performed on each of the peptides using Gram-positive bacteria cultured in Tryptic Soy Broth (TSB, Sigma-Aldrich, St. Louis, MO, USA) and Gram-negative bacteria cultured in Luria-Bertani broth (LB, Thermo Fisher Scientific, Carlsbad, CA, USA). The seeding concentration in 96-well plates of bacterial suspension was the same as for the anti-bacterial assay, and a UV spectrophotometer set to 550 nm was used to detect OD values. Melittin was used as a positive control. For MBIC, peptide solution was mixed with bacterial suspension at first to test if it could inhibit the growth of biofilm. However, for minimal biofilm eradication (MBEC) assays, biofilm was formed in 96-well plates at 37 °C for 24 h after seeding bacteria; afterwards, it was washed by sterile PBS twice. Peptide solutions, prepared with culture broth, were added to […] the biofilms by incubating at 37 °C for 24 h. Both plates were washed by PBS twice and stained by 125 µL 0.1% crystal violet solution (Sigma-Aldrich, Gillingham, UK). The stain was dissolved in 150 µL 30% acetic acid (Sigma-Aldrich, Gillingham, UK). The absorbance values of 100 µL solution from each well, were analysed by using a Synergy HT plate reader (Biotech, Minneapolis, MN, USA) set at 595 nm.

Data set [2] has as its system MRSA (ATCC 12493). The data set is described as follows: MIC/MBC broth dilution assay. The class given is cell-based, methicillin-resistant Staphylococcus aureus. The settings on record: 37 °C overnight, nine replicates from three independent experiments. On the procedure:
(§2) The minimal inhibitory concentration assay (MIC) and minimum bactericidal concentration assay (MBC) of the peptide were carried out using the broth dilution method. Seven microbes, including the Gram-positive bacteria, S. aureus (NCTC 6538), MRSA, (ATCC 12493) and Enterococcus faecalis (E. faecalis) (NCTC 12697); Gram-negative bacteria, E. coli (ATCC 8739), Klebsiella pneumoniae (K. pneumoniae) (ATCC 43816) and Pseudomonas aeruginosa (P. aeruginosa) (ATCC 9027); and a yeast, C. albicans (ATCC 10231), were used in these assays and incubated with peptide at 37 °C overnight. The growth culture media were Yeast Extract Peptone Dextrose for C. albicans and Mueller–Hinton broth for others. The concentration of microbes was detected by measuring OD values through the use of a UV spectrophotometer set to 550 nm. C. albicans assays required 10^6 colony forming units (CFU)/mL, while others were incubated with 10^8 CFU/mL and verified by viable cell counts. All of the inocula were diluted to final concentrations of 5 × 10^5 CFU/mL. The concentration of peptides ranged from 1 µM to 512 µM (C = 1, 2, 4, 8, 16, 32, 64, 128, 256, 512 µM). Two mg/mL of amphotericin B for C. albicans and 2 mg/mL norfloxacin for others were applied as positive controls, and 1% of dimethyl sulphoxide (DMSO) was applied as a vehicle control. The 96-well plates were analysed at 550 nm using an ELISA plate reader (Biolise BioTek EL808, Winooski, VT, USA).
(§3) After analysing the growth situation of microbial cultures from each concentration, 10 µL of the inhibited cultures (the peptide concentration ranges from MIC to maximum concentration) were selected to sub-culture onto the Mueller–Hinton agar (MHA) plates. The plates were incubated overnight at 37 °C. After incubation, the lowest concentration on the MHA plates with no bacterial growth was regarded as the MBC value.
For orientation: Dilution methods test growth across graded concentrations, often in twofold steps.

Data set [3] deals with Gram-positive bacteria. The data set is described as follows: MIC broth dilution assay, summary over Gram-positive bacteria. The settings on record: range over S. aureus, MRSA, E. faecalis. The class given is cell-based. As for the experimental part: as §2, with “Two mg/mL of amphotericin B for C. albicans and 2 mg/mL norfloxacin for others were applied as positive controls, and 1% of dimethyl sulphoxide (DMSO) was applied as a vehicle control.” left out, “USA). […]” for “USA).”

The test system of data set [4] is K. pneumoniae biofilm. Description: Antibiofilm assay (MBIC/MBEC), crystal violet. The class given is cell-based, Klebsiella pneumoniae. The settings on record: LB, 595 nm, nine replicates from three independent experiments. On the procedure:
as §1

Data set [5] concerns S. aureus (NCTC 6538). Description: MIC/MBC broth dilution assay. It counts as cell-based, Staphylococcus aureus. The settings on record: 37 °C overnight, nine replicates from three independent experiments. On the procedure:
as §2, §3

Data set [6] has as its system K. pneumoniae (ATCC 43816). The data set is described as follows: MIC/MBC broth dilution assay. The class given is cell-based, Klebsiella pneumoniae. The settings on record: broth dilution, Mueller–Hinton broth, 5 × 10^5 CFU/mL, 37 °C overnight, OD 550 nm, nine replicates from three independent experiments. As for the experimental part: as §2, §3
For data set [7], the system named is E. faecalis (NCTC 12697). Description: MIC/MBC broth dilution assay. The settings on record: 37 °C overnight, nine replicates from three independent experiments. The class given is cell-based, Enterococcus faecalis. As for the experimental part:
as §2, §3

Data set [8] deals with S. aureus biofilm. Description: Antibiofilm assay (MBIC/MBEC), crystal violet. The class given is cell-based, Staphylococcus aureus. The settings on record: TSB, 595 nm, nine replicates from three independent experiments. As for the experimental part: as §1
Data set [9] has as its system P. aeruginosa (ATCC 9027). Description: MIC/MBC broth dilution assay. The class given is cell-based, Pseudomonas aeruginosa. The settings on record: broth dilution, Mueller–Hinton broth, 5 × 10^5 CFU/mL, 37 °C overnight, OD 550 nm, nine replicates from three independent experiments. On the procedure:
as §2, §3

Data set [10] deals with horse erythrocytes. Description: Haemolysis assay. It counts as cell-based. The settings on record: 37 °C, 2 h. On the procedure: Defibrinated horse erythrocytes (TCS Biosciences Ltd., Buckingham, UK) were used in the haemolysis assay. Peptides, from 1 μM to 512 μM, were tested with a 4% (v/v) erythrocyte suspension and were incubated at 37 °C for 2 h, while 1% Triton X-100 (Sigma-Aldrich, St. Louis, MO, USA) was acted as a positive control and phosphate-buffered saline (PBS) was used as a negative control. The sample supernatants were analysed at 550 nm on an ELISA plate reader (Biolise BioTek EL808, Winooski, VT, USA).

The test system of data set [11] is E. coli (ATCC 8739). The data set is described as follows: MIC/MBC broth dilution assay. The settings on record: 37 °C overnight, nine replicates from three independent experiments. The class given is cell-based, Escherichia coli. On the procedure: as §2, §3
Data set [12] has as its system MRSA biofilm. Description: Antibiofilm assay (MBIC/MBEC), crystal violet. It counts as cell-based, methicillin-resistant Staphylococcus aureus. The settings on record: TSB, 595 nm, nine replicates from three independent experiments. As for the experimental part:
as §1

For data set [13], the system named is C. albicans (ATCC 10231). The data set is described as follows: MIC/MBC broth dilution assay. It counts as cell-based, Candida albicans. The settings on record: sub-culture on agar plates, 37 °C overnight, nine replicates from three independent experiments. As for the experimental part:
as §2, §3

The test system of data set [14] is P. aeruginosa biofilm. Description: Antibiofilm assay (MBIC/MBEC), crystal violet. It counts as cell-based, Pseudomonas aeruginosa. The settings on record: LB, 595 nm, nine replicates from three independent experiments. On the procedure:
as §1

Setting [15] is: broth dilution, Mueller–Hinton broth, 5 × 10^5 CFU/mL, OD 550 nm.

FLPIIGKLLSGLL-NH2 [VM]: the MBIC is listed as >512/>512 µM in data set [1] (E. coli biofilm inhibition); >512/>512 µM in data set [4] (K. pneumoniae biofilm inhibition); 8 µM in data set [8] (S. aureus biofilm inhibition); 8 µM in [12] (MRSA biofilm inhibition); >512/>512 µM in [14] (P. aeruginosa biofilm inhibition). The MBEC is >512/>512 µM in data set [1] (E. coli preformed 24 h biofilm, peptide 24 h at 37 °C); >512/>512 µM in [4] (K. pneumoniae preformed 24 h biofilm, peptide 24 h at 37 °C); 64 µM in [8] (S. aureus preformed 24 h biofilm, peptide 24 h at 37 °C); 64 µM in [12] (MRSA preformed 24 h biofilm, peptide 24 h at 37 °C); >512/>512 µM in [14] (P. aeruginosa preformed 24 h biofilm, peptide 24 h at 37 °C). Besides, the minimal inhibitory concentration (MIC) in [2] (setting [15]) was 4 µM; in data set [5] (setting [15]), 4 µM; in data set [6], >512 µM; in [7] (setting [15]) it was 16 µM; in [9] it was >512 µM; in [11] (setting [15]), 256 µM. The MBC was 4 µM in data set [2] (sub-culture on MHA); 4 µM in data set [5] (sub-culture of inhibited cultures on MHA); 16 µM in data set [7] (sub-culture on MHA); 256 µM in data set [11] (sub-culture on MHA); 32/32 µM in data set [13]. Besides, the “MICs against Gram-positive bacteria” value in data set [3] was in the range of 4 to 16 µM. For the same substance, in data set [10] (4% (v/v) defibrinated horse erythrocytes, 550 nm, normalised to 1% Triton X-100, calculated from the haemolysis curve), the “HC50 (peptide concentration that caused 50% lysis of horse red blood cells)” value is given as 44.43 µM. In addition, the “maximum concentration that caused less than 10% haemolysis” value in [10] (4% horse erythrocytes) is 16 µM.

Values taken from article PMC9495676, “Evaluation of the Antimicrobial Properties of a Natural Peptide from Vespa mandarinia Venom and Its Synthetic Analogues as a Possible Route to Defeat Drug-Resistant Microbes” (Biology, 2022).
